Laboratory results reported in PubChem BioAssay (NCI).
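How tested: cells in 96-well plates exposed to compound for 48 hours at five concentrations. TGI marks complete inhibition of growth.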

Tests used:
Test in all cases: DTP human tumour cell line panel, 48 h
IGROV1 ovarian = tested on: IGROV1 ovarian
UACC-62 melanoma = tested on: UACC-62 melanoma
HT29 colon = tested on: HT29 colon
NCI-H23 lung = tested on: NCI-H23 lung
MDA-MB-435 = tested on: MDA-MB-435
OVCAR-4 ovarian = tested on: OVCAR-4 ovarian
MDA-N = tested on: MDA-N
UO-31 renal = tested on: UO-31 renal
DU-145 prostate = tested on: DU-145 prostate
A549 NSCLC = tested on: A549 NSCLC
SK-MEL-5 melanoma = tested on: SK-MEL-5 melanoma
OVCAR-5 ovarian = tested on: OVCAR-5 ovarian
HOP-92 NSCLC = tested on: HOP-92 NSCLC
HCC-2998 colon = tested on: HCC-2998 colon
SK-OV-3 ovarian = tested on: SK-OV-3 ovarian
OVCAR-8 ovarian = tested on: OVCAR-8 ovarian
U251 CNS = tested on: U251 CNS
ACHN renal = tested on: ACHN renal
SK-MEL-2 melanoma = tested on: SK-MEL-2 melanoma
RPMI-8226 leukemia = tested on: RPMI-8226 leukemia
MCF7 breast = tested on: MCF7 breast
SNB-75 CNS = tested on: SNB-75 CNS
HS 578T breast = tested on: HS 578T breast
HCT-116 colon = tested on: HCT-116 colon
NCI-H522 lung = tested on: NCI-H522 lung
MDA-MB-231 breast = tested on: MDA-MB-231 breast
SNB-19 CNS = tested on: SNB-19 CNS
SW-620 colon = tested on: SW-620 colon
NCI-H460 lung = tested on: NCI-H460 lung
TK-10 renal = tested on: TK-10 renal
SF-295 CNS = tested on: SF-295 CNS
OVCAR-3 ovarian = tested on: OVCAR-3 ovarian
KM12 colon = tested on: KM12 colon
LOX IMVI melanoma = tested on: LOX IMVI melanoma
SR leukemia = tested on: SR leukemia
COLO 205 colon = tested on: COLO 205 colon
RXF 393 renal = tested on: RXF 393 renal
UACC-257 melanoma = tested on: UACC-257 melanoma
K-562 leukemia = tested on: K-562 leukemia
HCT-15 colon = tested on: HCT-15 colon
NCI-H226 lung = tested on: NCI-H226 lung
HL-60(TB) leukemia = tested on: HL-60(TB) leukemia
MALME-3M melanoma = tested on: MALME-3M melanoma
PC-3 prostate = tested on: PC-3 prostate
A498 renal = tested on: A498 renal
EKVX NSCLC = tested on: EKVX NSCLC
T-47D breast = tested on: T-47D breast
786-0 renal = tested on: 786-0 renal
SN12C renal = tested on: SN12C renal
MOLT-4 leukemia = tested on: MOLT-4 leukemia
NCI/ADR-RES ovarian = tested on: NCI/ADR-RES ovarian
CCRF-CEM leukemia = tested on: CCRF-CEM leukemia
SF-539 CNS = tested on: SF-539 CNS
CAKI-1 renal = tested on: CAKI-1 renal
SF-268 CNS = tested on: SF-268 CNS
M14 melanoma = tested on: M14 melanoma
BT-549 breast = tested on: BT-549 breast
SK-MEL-28 melanoma = tested on: SK-MEL-28 melanoma
HOP-62 NSCLC = tested on: HOP-62 NSCLC

For C(=N\NC1=NCCN1)/c1ccc(-c2cn3cc(/C=N/NC4=NCCN4)ccc3n2)cc1, the TGI (IGROV1 ovarian) was over 64.5 µM, the TGI (UACC-62 melanoma) was over 100 µM and the TGI (HT29 colon) was over 67.7 µM. The TGI (NCI-H23 lung) was over 100 µM, the TGI (MDA-MB-435) was over 79.7 µM and the TGI (OVCAR-4 ovarian) was over 100 µM. It also gave a TGI (MDA-N) of over 100 µM, a TGI (UO-31 renal) of 99.8 µM and a TGI (DU-145 prostate) of 37.7 µM. It also gave a TGI (A549 NSCLC) of 38.1 µM, a TGI (SK-MEL-5 melanoma) of over 100 µM and a TGI (OVCAR-5 ovarian) of over 100 µM. The TGI (HOP-92 NSCLC) was 43.2 µM, the TGI (HCC-2998 colon) was over 100 µM and the TGI (SK-OV-3 ovarian) was over 100 µM. The TGI (OVCAR-8 ovarian) was over 55 µM, the TGI (U251 CNS) was over 64.9 µM and the TGI (ACHN renal) was over 100 µM. For the same compound, the TGI (SK-MEL-2 melanoma) was over 100 µM, the TGI (RPMI-8226 leukemia) was over 100 µM and the TGI (MCF7 breast) was over 100 µM. It also gave a TGI (SNB-75 CNS) of over 100 µM, a TGI (HS 578T breast) of over 100 µM and a TGI (HCT-116 colon) of over 62.4 µM. For the same compound, the TGI (NCI-H522 lung) was over 100 µM, the TGI (MDA-MB-231 breast) was 34.6 µM and the TGI (SNB-19 CNS) was over 61.8 µM. The TGI (SW-620 colon) was over 100 µM, the TGI (NCI-H460 lung) was over 45.8 µM and the TGI (TK-10 renal) was 56.1 µM. For the same compound, the TGI (SF-295 CNS) was over 70.1 µM, the TGI (OVCAR-3 ovarian) was over 67 µM and the TGI (KM12 colon) was over 100 µM. It also gave a TGI (LOX IMVI melanoma) of over 52.5 µM, a TGI (SR leukemia) of 13.5 µM and a TGI (COLO 205 colon) of over 100 µM. It also gave a TGI (RXF 393 renal) of over 100 µM, a TGI (UACC-257 melanoma) of over 100 µM and a TGI (K-562 leukemia) of 42.5 µM. It also gave a TGI (HCT-15 colon) of over 100 µM, a TGI (NCI-H226 lung) of over 100 µM and a TGI (HL-60(TB) leukemia) of 19.7 µM. It also gave a TGI (MALME-3M melanoma) of over 100 µM, a TGI (PC-3 prostate) of over 59.4 µM and a TGI (A498 renal) of over 100 µM. It also gave a TGI (EKVX NSCLC) of over 92.4 µM, a TGI (T-47D breast) of over 100 µM and a TGI (786-0 renal) of over 66.4 µM. For the same compound, the TGI (SN12C renal) was over 63.1 µM, the TGI (MOLT-4 leukemia) was over 37.4 µM and the TGI (NCI/ADR-RES ovarian) was over 100 µM. The TGI (CCRF-CEM leukemia) was 25.1 µM, the TGI (SF-539 CNS) was over 100 µM and the TGI (CAKI-1 renal) was 49.4 µM. The TGI (SF-268 CNS) was over 66.1 µM, the TGI (M14 melanoma) was over 62.6 µM and the TGI (BT-549 breast) was 52.9 µM.

COc1cc2oc3cc(=O)cc4oc(-c5ccccc5)cc(c2c2c1CCC(c1ccccc1)O2)c43 (stereo unspecified) gave a TGI (IGROV1 ovarian) of over 100 µM, a TGI (UACC-62 melanoma) of over 100 µM and a TGI (HT29 colon) of 66.2 µM. The TGI (NCI-H23 lung) was over 100 µM, the TGI (MDA-MB-435) was 56 µM and the TGI (OVCAR-4 ovarian) was over 100 µM. It also gave a TGI (MDA-N) of over 100 µM, a TGI (UO-31 renal) of over 100 µM and a TGI (DU-145 prostate) of over 100 µM. The TGI (A549 NSCLC) was over 100 µM, the TGI (SK-MEL-5 melanoma) was 65.1 µM and the TGI (OVCAR-5 ovarian) was over 100 µM. For the same compound, the TGI (HOP-92 NSCLC) was over 100 µM, the TGI (HCC-2998 colon) was over 100 µM and the TGI (SK-OV-3 ovarian) was over 100 µM. The TGI (OVCAR-8 ovarian) was over 100 µM, the TGI (U251 CNS) was over 100 µM and the TGI (ACHN renal) was 61.9 µM. The TGI (SK-MEL-2 melanoma) was over 100 µM, the TGI (RPMI-8226 leukemia) was 20.9 µM and the TGI (MCF7 breast) was 59.2 µM. For the same compound, the TGI (SNB-75 CNS) was over 100 µM, the TGI (HS 578T breast) was over 100 µM and the TGI (HCT-116 colon) was over 100 µM. For the same compound, the TGI (NCI-H522 lung) was over 100 µM, the TGI (MDA-MB-231 breast) was 68.1 µM and the TGI (SNB-19 CNS) was over 100 µM. The TGI (SW-620 colon) was over 100 µM, the TGI (NCI-H460 lung) was over 100 µM and the TGI (TK-10 renal) was 83.4 µM. For the same compound, the TGI (SF-295 CNS) was 54.9 µM, the TGI (OVCAR-3 ovarian) was 77.6 µM and the TGI (KM12 colon) was 65.5 µM. For the same compound, the TGI (LOX IMVI melanoma) was over 100 µM, the TGI (SR leukemia) was over 100 µM and the TGI (COLO 205 colon) was 46.1 µM. It also gave a TGI (RXF 393 renal) of over 100 µM, a TGI (SK-MEL-28 melanoma) of over 100 µM and a TGI (UACC-257 melanoma) of 69 µM. The TGI (K-562 leukemia) was 83.9 µM, the TGI (HCT-15 colon) was 91.9 µM and the TGI (NCI-H226 lung) was over 100 µM. The TGI (HL-60(TB) leukemia) was 62.7 µM, the TGI (MALME-3M melanoma) was over 100 µM and the TGI (PC-3 prostate) was over 100 µM. The TGI (A498 renal) was over 100 µM, the TGI (EKVX NSCLC) was over 100 µM and the TGI (T-47D breast) was 54.8 µM. The TGI (786-0 renal) was over 100 µM, the TGI (SN12C renal) was over 100 µM and the TGI (MOLT-4 leukemia) was over 100 µM. For the same compound, the TGI (NCI/ADR-RES ovarian) was over 100 µM, the TGI (CCRF-CEM leukemia) was over 100 µM and the TGI (SF-539 CNS) was over 100 µM. For the same compound, the TGI (CAKI-1 renal) was over 100 µM, the TGI (SF-268 CNS) was over 100 µM and the TGI (HOP-62 NSCLC) was over 100 µM. The TGI (M14 melanoma) was 33.4 µM and the TGI (BT-549 breast) was over 100 µM.
